The record followed here is patent US12173012B2, “Indolocarbazole analogs of staurosporine and methods of synthesis thereof” (priority 2020, dated 2024).

Like-named read-outs stand apart in the source and are kept apart here.

Assay [1] has as its system MDA-MB-231 breast cancer cell line. The note with it: read-out: MDA-MB-231 IC50; MDA-MB-231 cells, 72 h incubation, MTS readout.
The test system of assay [2] is HMLE breast cancer cell line. To be noted: for IC50: read-out: HMLE IC50.
The subject of assay [3] is MDA-MB-231 breast cancer cell line. Nature of the assay: cells. To be noted: Homo sapiens, MDA-MB-231, 72 h, read-out: MDA-MB-231 IC50.

Regarding `CN[C@@H]1C[C@H]2O[C@@](C)([C@@H]1OC)n1c3ccc(O)cc3c3c4c(c5c6ccccc6n2c5c31)C(=O)NC4` [Compound 13, 9-OH staurosporine], the IC50 is 2 nM in assay [1] and 27.5 nM in assay [2]. In addition, the “fold less active/potent than staurosporine against HMLE cell line” value in assay [2] is recorded as 5.6 fold.

Turning to `CN[C@@H]1C[C@H]2O[C@@](C)([C@@H]1OC)n1c3cc(O)ccc3c3c4c(c5c6ccccc6n2c5c31)C(=O)NC4` [Compound 14, 10-OH staurosporine], in assay [1], the IC50 amounted to 3.4 nM. Further, in assay [2], the “fold less active/potent than staurosporine against HMLE cell line” value stood at 12.0 fold and the IC50 turned out to be 58.7 nM.

Consider `CN[C@@H]1C[C@H]2O[C@@](C)([C@@H]1OC)n1c3ccccc3c3c4c(c5c6ccccc6n2c5c31)C(=O)NC4` [Staurosporine], for which the IC50 in assay [3] is 2.5 nM.

Usually IC50 stands for the midpoint of a concentration-inhibition curve.
